Read-outs that look alike come from different tables or passages of the source. Where a SMILES comes first, the peptide text is derived from it. The star is where a group is joined. Cbz = O=C(OCc1ccccc1)*; CH2F = FC*
What was measured:
SNP-induced cell death = SNP-induced cell death with ROS scavenger or MAPK pathway inhibitors; assay type: cell-based; conditions: pretreatment or treatment with inhibitor
Text: However, as shown in FIGS. 11A and 11B, in cells pretreated with NAC having ROS scavenging ability, SNP-induced cell death was inhibited similarly in Nec-1 treated group (FIG. 11A). From this, it was confirmed again that ROS is associated with SNP-induced cell death. Further, SNP-induced cell death was inhibited by treatment with JNK inhibitor […] (SP), p38 inhibitor sB202190 (SB), and MEK, upstream of ERK, inhibitor PD98059 (PD) (FIG. 11B).

HaCaT cells = experiment: SNP-induced cell death in HaCaT cells, MTT assay and phase-contrast microscopy; assay type: cell-based, human; conditions: for SNP-induced cell death (cell viability, MTT assay): pretreated with 80 μM of Nec-1 and/or 20 μM of zVAD for 1 hour, followed by SNP
Description: Whether SNP-induced cell death is improved by […] necrostatin-1 (Nec-1), and combination treatment of zVAD and Nec-1 was examined in HaCaT cells using MTT assay and phase-contrast microscopy. Cells were pretreated with 80 μM of Nec-1 and/or 20 μM of zVAD for 1 hour, followed by SNP treatment.

HaCaT and HEKn = experiment: TNFα-induced necroptosis stimuli (TCZ or TSZ) in keratinocytes; assay type: cell-based, human; conditions: TNFα + zVAD + cyclohexamide or SMAC mimetic
Text: The immortal human keratinocyte line HaCaT and primary human epidermal keratinocyte isolated from neonatal foreskin (HEKn) responded to prototypical necroptosis stimuli induced by TNFα (TNFα[…]+zVAD+cyclohexamide or SMAC mimetic; also referred to herein as TCZ or TSZ). […] Additionally, from a knockout model, it was confirmed whether RIP3 and RIP1 affect TNF-induced cell death via necroptosis.

[1] = tested on: RIP3 overexpressing cells; experiment: MLKL phosphorylation inhibition in RIP3 overexpressing cells; assay type: cell-based, human
Text: As shown in FIGS. 17A and 17B, the basal phosphorylation of MLKL in RIP3 overexpressing cells, and SNP-induced p-MLKL were eliminated by an RIP3 inhibitor dabrafenib (FIG. 17A).

Structure (SMILES): O=C1c2ccccc2-c2n[nH]c3cccc1c23 [SP420119]
- SNP-induced cell death (SNP-induced cell death): inhibited

Structure (SMILES): CC(NC(=O)C(NC(=O)OCc1ccccc1)C(C)C)C(=O)NC(CC(=O)O)C(=O)CF (stereo not drawn) [zVAD] (Cbz-Val-Ala-Asp-CH2F; configuration not given here)
- SNP-induced cell death (cell viability, MTT assay) (HaCaT cells): reduced
- TNF-induced cell death (HaCaT and HEKn): did not prevent
- caspase-3 and PARP processing (HaCaT and HEKn): completely blocked

Structure (SMILES): CC(=O)N[C@@H](CS)C(=O)O [NAC]
- SNP-induced cell death (SNP-induced cell death): inhibited

Structure (SMILES): CN1C(=O)C(Cc2c[nH]c3ccccc23)NC1=S (stereo not drawn) [Nec-1, necrostatin-1]
- SNP-induced cell death (phase-contrast microscopy and Annexin-V staining) (HaCaT cells): inhibited
- SNP-induced cell death (cell viability, MTT assay) (HaCaT cells): reduced
- protection from acute SNP cytotoxicity / SNP-induced cell death (HEKn cells; HEKn cells): protected HEKn cells from acute SNP cytotoxicity more effectively than zVAD
- SNP-induced cell death (SNP-induced cell death): inhibited

Structure (SMILES): CC(C)(C)c1nc(-c2cccc(NS(=O)(=O)c3c(F)cccc3F)c2F)c(-c2ccnc(N)n2)s1 [dabrafenib]
- protection from acute SNP cytotoxicity / SNP-induced cell death (HEKn cells): protected HEKn cells from acute SNP cytotoxicity more effectively than zVAD
- SNP-induced p-MLKL ([1]; SNP treated): eliminated
- basal phosphorylation of MLKL ([1]; no SNP): eliminated

Structure (SMILES): COc1nccnc1NS(=O)(=O)c1ccc(NC(=O)/C=C/c2ccc([N+](=O)[O-])s2)cc1 [NSA, necrosulfonamide]
- protection from acute SNP cytotoxicity / SNP-induced cell death (HEKn cells; HEKn cells): protected HEKn cells from acute SNP cytotoxicity more effectively than zVAD

Structure (SMILES): Oc1ccc(-c2nc(-c3ccncc3)c(-c3ccc(F)cc3)[nH]2)cc1 [sB202190]
- SNP-induced cell death (SNP-induced cell death): inhibited

Structure (SMILES): COc1cccc(-c2cc(=O)c3ccccc3o2)c1N [PD98059]
- SNP-induced cell death (SNP-induced cell death): inhibited
